Source: patent publication US20250144067A1, “PERSONALIZED STARVATION THERAPY FOR CANCER” (Faeth Therapeutics, Inc., priority 2021, published 2025)
Counter-ions that a name gives are not always drawn.

Tests used:
[1] = system: NCI-H292 lung cancer cells; assay: FDA drug screening, complete media vs cholesterol-free media without statin (TABLE 1); format: cell-based, human
[2] = system: NCI-H292 lung cancer cells; assay: FDA drug screening, complete media vs cholesterol-free media with simvastatin (TABLE 2); format: cell-based, human; details: for Cholesterol-free media + simvastatin (0.04 μM) / Complete Media: NCI-H292 cells
[3] = Complete minus Cholesterol-free, >0 enhanced anti-cancer activity, about 0 neutral, <0 antagonist
[4] = NCI-H292 cells, cholesterol-free media without statin
[5] = FDA drug library screen, cholesterol-free media with simvastatin 0.04 μM
[6] = FDA drug library screen, complete media
[7] = complete media vs cholesterol-free media + simvastatin (0.04 μM), >0 enhanced anti-cancer activity, about 0 neutral, <0 antagonist
[8] = complete vs cholesterol-free media, greater than 0 enhanced anti-cancer activity, about 0 neutral, below 0 antagonists
[9] = cholesterol-free media with simvastatin 0.04 μM, FDA drug library screen (TABLE 2)
[10] = complete media, FDA drug library screen (TABLE 2)
[11] = complete media minus cholesterol-free media + simvastatin (0.04 μM), >0 enhanced anti-cancer activity, about 0 neutral, <0 antagonist
[12] = NCI-H292 cells, cholesterol-free media without statin, FDA drug library screen
[13] = NCI-H292 cells, complete media, FDA drug library screen
[14] = complete media minus cholesterol-free media + simvastatin, >0 enhanced anti-cancer activity, about 0 neutral, <0 antagonist
[15] = FDA library drug in cholesterol-free media with simvastatin 0.04 μM
[16] = FDA library drug in complete media
[17] = Complete minus Cholesterol-free, […]
[18] = complete media vs cholesterol-free media + simvastatin (0.04 μM), […]
[19] = Complete minus Cholesterol-free, greater than 0 enhanced anti-cancer activity, about 0 neutral, below 0 antagonist
[20] = NCI-H292 cells, FDA drug library screen, cholesterol-free media without statin
[21] = NCI-H292 cells, FDA drug library screen, complete media
[22] = cholesterol-free media with simvastatin 0.04 μM, cell growth value in FDA drug screen
[23] = complete media, cell growth value in FDA drug screen
[24] = NCI-H292 cells in cholesterol-free media without statin
[25] = NCI-H292 cells in complete media
[26] = Complete minus Cholesterol-free, greater than 0 enhanced anti-cancer activity, about 0 neutral, below 0 antagonists
[27] = complete vs cholesterol-free media, […]
[28] = cholesterol-free media with simvastatin 0.04 μM, […]
[29] = complete media minus cholesterol-free media + simvastatin, […]

Compound | Difference [1, 3] | Cholesterol-free [1, 4] | Complete ([1]; NCI-H292 cells, complete media) | Cholesterol-free media + simvastatin (0.04 μM) [2, 5] | Complete Media [2, 6] | Difference [2, 7] | Cholesterol-free [1, 12] | Complete [1, 13] | other results
Sc1ncnc2nc[nH]c12 [6-Mercaptopurine] | −0.28 | 0.7087 | 0.4285 | 1.121 | 0.9807 | −0.14 | – | – | –
Nc1nc2nc[nH]c2c(=S)[nH]1 [6-Thioguanine] | – | 0.7053 | 0.3153 | – | – | – | – | – | Difference [1, 8]: −0.39; Cholesterol-free media + simvastatin (0.04 μM) [2, 9]: 0.7013; Complete Media [2, 10]: 0.7052; Difference [2, 11]: 0.00
Nc1c2ccccc2nc2ccccc12 [9-Aminoacridine] | −0.03 | – | – | 0.3257 | 0.5257 | – | 0.5968 | 0.5645 | Difference [2, 14]: 0.20
C=CCCCCCCCCC(=O)O [10-Undecenoic acid (zinc salt)] | −0.19 | 1.263 | 1.076 | – | – | −0.33 | – | – | Cholesterol-free media + simvastatin (0.04 μM) [2, 15]: 1.561; Complete Media [2, 16]: 1.235
C=CCCCCCCCCC(=O)O [10-Undecenoic acid] | 0.01 | – | – | – | – | −0.30 | 0.9796 | 0.99 | Cholesterol-free media + simvastatin (0.04 μM) [2, 15]: 1.07; Complete Media [2, 16]: 0.7648
CC(=O)[C@@]1(O)CC[C@H]2[C@@H]3CCC4=CC(=O)CC[C@]4(C)[C@H]3CC[C@@]21C [17-Hydroxyprogesterone] | – | – | – | 0.9953 | 0.8962 | – | 1.202 | 1.185 | Difference [1, 17]: −0.02; Difference [2, 18]: −0.10
CC1(C)[C@@H](O)CC[C@]2(C)[C@H]3C(=O)C=C4[C@@H]5C[C@@](C)(C(=O)O)CC[C@]5(C)CC[C@@]4(C)[C@]3(C)CC[C@@H]12 [18β-Glycyrrhetinic acid] | – | – | – | 0.8991 | 0.8018 | −0.10 | – | – | Difference [1, 19]: −0.09; Cholesterol-free [1, 20]: 1.192; Complete [1, 21]: 1.102
CC(C)=CCC[C@](C)(O)[C@H]1CC[C@]2(C)[C@@H]1[C@H](O)C[C@@H]1[C@@]3(C)CC[C@H](O[C@@H]4O[C@H](CO)[C@@H](O)[C@H](O)[C@H]4O[C@@H]4O[C@H](CO)[C@@H](O)[C@H](O)[C@H]4O)C(C)(C)[C@@H]3CC[C@]12C [20(S)-Ginsenoside Rg3] | – | 1.062 | 0.8564 | – | – | – | – | – | Difference [1, 17]: −0.21; Cholesterol-free media + simvastatin (0.04 μM) [2, 15]: 1.721; Complete Media [2, 16]: 1.403; Difference [2, 18]: −0.32
CC12CCC(CC1=O)C2(C)C (stereo not drawn) [(+)-Camphor] | – | – | – | – | – | – | 0.9458 | 1.19 | Difference ([1]; complete vs cholesterol-free media, >0 enhanced anti-cancer activity, about 0 neutral, <0 antagonist): 0.24; Cholesterol-free media + simvastatin (0.04 μM) [2, 22]: 0.9198; Complete Media [2, 23]: 1.05; Difference [2, 14]: 0.13
CC(=O)N1CCN(c2ccc(OC[C@H]3CO[C@](Cn4ccnc4)(c4ccc(Cl)cc4Cl)O3)cc2)CC1 [(+)-Ketoconazole] | −0.24 | 1.237 | 0.9934 | 0.4743 | 0.9511 | – | – | – | Difference [2, 14]: 0.48
CC(C)NC[C@@H](O)COc1ccc(CC(N)=O)cc1 [(R)-(+)-Atenolol] | 0.07 | – | – | – | – | −0.29 | 0.8467 | 0.9214 | Cholesterol-free media + simvastatin (0.04 μM) [2, 15]: 1.166; Complete Media [2, 16]: 0.872
NC[C@H](CC(=O)O)c1ccc(Cl)cc1 [(R)-Baclofen] | – | – | – | 0.9854 | 0.8585 | – | – | – | Difference [1, 17]: −0.91; Cholesterol-free [1, 24]: 2.052; Complete [1, 25]: 1.14; Difference [2, 18]: −0.13
COc1cccc(-c2c(C)n(Cc3c(F)cccc3C(F)(F)F)c(=O)n(C[C@H](NCCCC(=O)O)c3ccccc3)c2=O)c1F [(R)-Elagolix] | – | – | – | 1.16 | 1.077 | −0.08 | – | – | Difference [1, 26]: −0.49; Cholesterol-free [1, 24]: 1.394; Complete [1, 25]: 0.8996
Cc1c(OCC(F)(F)F)ccnc1C[S@@+]([O-])c1nc2ccccc2[nH]1 [(R)-Lansoprazole] | – | – | – | – | – | – | – | – | Difference [1, 19]: −0.18; Cholesterol-free [1, 20]: 0.9835; Complete [1, 21]: 0.8054; Cholesterol-free media + simvastatin (0.04 μM) [2, 9]: 1.431; Complete Media [2, 10]: 1.389; Difference [2, 11]: −0.04
N[C@H](CO)C(=O)O [(R)-Serine] | – | 1.718 | 1.345 | – | – | – | – | – | Difference [1, 8]: −0.37; Cholesterol-free media + simvastatin (0.04 μM) [2, 22]: 0.9633; Complete Media [2, 23]: 1.052; Difference [2, 14]: 0.09
COc1cc2nc(N3CCN(C(=O)[C@H]4CCCO4)CC3)nc(N)c2cc1OC [(R)-Terazosin] | – | 1.165 | 0.7551 | – | – | – | – | – | Difference [1, 8]: −0.41; Cholesterol-free media + simvastatin (0.04 μM) [2, 9]: 0.9379; Complete Media [2, 10]: 0.9227; Difference [2, 11]: −0.02
COc1ccc(CCN(C)CCC[C@](C#N)(c2ccc(OC)c(OC)c2)C(C)C)cc1OC.Cl [(R)-Verapamil (hydrochloride)] | – | – | – | 1.005 | 0.92 | – | 0.8697 | 0.8867 | Difference [1, 17]: 0.02; Difference [2, 18]: −0.08
CC[C@@]1(O)C(=O)OCc2c1cc1n(c2=O)Cc2cc3cc(O)ccc3nc2-1 [(S)-10-Hydroxycamptothecin] | – | – | – | 0.2337 | 0.138 | – | 0.01962 | 0.02742 | Difference [1, 17]: 0.01; Difference [2, 18]: −0.10
CC(C)Cc1ccc([C@H](C)C(=O)O)cc1 [(S)-(+)-Ibuprofen] | −0.01 | – | – | – | – | −0.26 | 1.011 | 0.9982 | Complete Media ([2]; drug in complete media): 0.9605
CC(C)NC[C@H](O)COc1cccc2ccccc12.Cl [(S)-(−)-Propranolol (hydrochloride)] | – | – | – | – | – | – | – | – | Difference [1, 26]: −0.61; Cholesterol-free [1, 24]: 1.5; Complete [1, 25]: 0.8879; Cholesterol-free media + simvastatin (0.04 μM) [2, 9]: 1.665; Complete Media [2, 10]: 1.663; Difference [2, 11]: 0.00
C[C@H](Oc1cc(-c2cnn(C3CCNCC3)c2)cnc1N)c1c(Cl)ccc(F)c1Cl [(S)-Crizotinib] | – | – | – | 1.094 | 0.9518 | – | 1.253 | 1.275 | Difference [1, 17]: 0.02; Difference [2, 18]: −0.14
N[C@@H](CCC(=O)O)C(=O)O [(S)-Glutamic acid] | – | – | – | 0.9378 | 0.8445 | – | 1.299 | 1.635 | Difference [1, 27]: 0.34; Difference [2, 18]: −0.09
C#CCN[C@H]1CCc2ccccc21 [(S)-Rasagiline] | 0.05 | – | – | – | – | −0.38 | 1.001 | 1.048 | Cholesterol-free media + simvastatin (0.04 μM) [2, 15]: 1.283; Complete Media [2, 16]: 0.8996
COc1cc2nc(N3CCN(C(=O)[C@@H]4CCCO4)CC3)nc(N)c2cc1OC [(S)-Terazosin] | 0.01 | – | – | 0.9768 | 0.8794 | −0.10 | 0.9099 | 0.9163 | –
COc1ccc(CCN(C)CCC[C@@](C#N)(c2ccc(OC)c(OC)c2)C(C)C)cc1OC.Cl [(S)-Verapamil (hydrochloride)] | – | 1.169 | 0.9711 | – | – | – | – | – | Difference [1, 17]: −0.20; Cholesterol-free media + simvastatin (0.04 μM) ([2]; drug in cholesterol-free media with simvastatin 0.04 μM): 1.086; Complete Media ([2]; drug in complete media): 0.9249; Difference [2, 18]: −0.16
CN1CCN(CC/C=C2/c3ccccc3Sc3ccc(S(=O)(=O)N(C)C)cc32)CC1 [(Z)-Thiothixene] | −0.29 | 1.344 | 1.05 | – | – | – | – | – | Cholesterol-free media + simvastatin (0.04 μM) [2, 22]: 0.9883; Complete Media [2, 23]: 1.062; Difference [2, 14]: 0.07
O=C1C=C2C=C[C@@H]3C[C@@]2(O1)[C@H]1CCCCN31 [(−)-Securinine] | – | – | – | – | – | – | 0.7572 | 0.9271 | Difference [1, 27]: 0.17; Cholesterol-free media + simvastatin (0.04 μM) [2, 28]: 0.8712; Complete Media ([2]; complete media, […]): 0.9865; Difference [2, 29]: 0.12
C1CCN2C[C@@H]3C[C@@H](CN4CCCC[C@@H]34)[C@H]2C1 [(−)-Sparteine] | – | – | – | – | – | – | – | – | Difference [1, 17]: −0.60; Cholesterol-free [1, 24]: 1.432; Complete [1, 25]: 0.8366; Cholesterol-free media + simvastatin (0.04 μM) [2, 28]: 1.054; Complete Media ([2]; complete media, […]): 1.106; Difference [2, 29]: 0.05
